Measurements taken from patent publication US20050143356A1, “Selective inhibition of cyclooxygenase 1 in the treatment of diabetic nephropathy” (Vanderbilt University, priority 2003, published 2005).

Legend:
[1] = tested on: C57BLKS db/db mice; experiment: Body weight gain, blood sugar and glycosylated hemoglobin in diabetic db/db mice; details: diabetic db/db mice vs. vehicle treated controls, 6 months
Excerpt: (§1) The C57BLKS db/db mice is a rodent model of type II diabetes mellitus. A LepR^db (db) mutation on chromosome 4 (G→T point mutation) has been identified in the leptin receptor gene. This mutation generates a new donor splice site, leading to prematurely termination of the intracellular domain of leptin receptor and lack of leptin signal transduction. C57BLKS db/db strain is more susceptible to the development of diabetic nephropathy than the C57BL/6J db/db strain. Animals are characterized by obesity, insulin resistance, diabetes and diabetic nephropathy (DN). […] Pathologic changes include mesangial matrix expansion (>50% increase in the majority of glomeruli) and GBM thickening >25%, absence of GBM electron dense material by EM, arteriolar hyalinosis (any degree) and tubulo-interstitial fibrosis.
Inhibitor was given for 6 months, while the control diabetic mice were given vehicle alone (n=8 per group). Blood samples were drawn for analysis of glucose and glycosylated hemoglobin (HbA1c) monthly. The urine samples were collected monthly and albumin/creatinine ratio was determined by enzyme linked immunosorbent assays (Exocell Inc, PA, USA). Glomerular filtration rate (GFR) was determined using FITC-inulin clearance based on plasma elimination rate following single bolus intravenous injection.
(§2) Cyclooxygenase-1 (COX-1) is also abundantly expressed in the kidney, however its role in health and disease remains poorly defined. […] Diabetic mice were provide the COX-1 inhibitor for 6 months, while control diabetic mice given vehicle alone. […] Glomerular filtration rate was also determined using FITC-inulin clearance.

[2] = tested on: C57BLKS db/db mice; experiment: Kidney histopathology (mesangial expansion) in diabetic db/db mice; type: in vivo, mouse; details: treated vs. untreated (severe mesangial expansion in untreated)
Excerpt: as §1, §2

COc1ccc(-n2nc(C(F)(F)F)cc2-c2ccc(Cl)cc2)cc1 [SC8560]
effect on Hb1C [1]: did not affect
effect on blood sugar [1]: did not affect
effect on body weight gain [1]: did not affect
mesangial expansion (histopathology) [2]: less pronounced
